Legend:
[1] = tested on: VEGF expression of hfRPE cells; assay: VEGF ELISA on hfRPE cells with and without UV treatment; type: cell-based, human; details: Avastin 0.25 mg/mL, nanogels 2 mg/mL, 24 hours
Procedure: To test the ability of Avastin®-loaded nanogels to affect VEGF expression, HfRPE cells were seeded in 96-well plates at a density of 100,000 cells/cm^2. After one day incubation, cell media for all groups was changed to PBS (pH 7.4). Half of all cells were exposed to UV light (1 J/cm) for one hour, and the other half were placed back into the cell incubator. After the 1-hour exposure, PBS (pH 7.4) for all wells were replaced with serum free media (DMEM+pen/strep), then Avastin® at concentration 0.25 mg/mL, and nanogels containing 2 mol % AA with and without 12.5 wt % Avastin® were added into the wells at a concentration of 2 mg/mL. Cells with and without UV treatment were used as controls.
After 24 hours, a VEGF ELISA assay was conducted on all experimental groups.

[2] = Structural integrity of released Avastin (far-UV and fluorescence emission scans); type: physicochemical; details: after release from the nanogels, versus native and denatured controls
Procedure: Nanogels containing 0, 2 or 5 mol % acrylic acid (AA) loaded with 12.5 or 37.5 wt % Avastin were dispersed in 1 mL PBS (pH 7.4) inside a release device (Float-A-Lyzer® G2, Spectrum Laboratories Inc.) with MWCO 300 kDa at 20 mg/mL. The release device was immersed in 20 mL PBS (pH 7.4) in a 50 mL conical centrifuge tube, and the release was carried out in an incubator shaker at 70 rpm and 37° C. for 100 days. At selected times, the release device was transferred to a new PBS (pH 7.4) release media maintained at 37° C. The amount of Avastin released at each time point was measured using a BCA total protein assay kit (n=4). The fluorescence spectra of released Avastin at late time points were compared to native Avastin® to evaluate the structural integrity of the therapeutic antibody during release.

## Bevacizumab [Avastin]
[1]; UV-treated cells
  VEGF expression of hfRPE: reduces the VEGF expression to the level of the cells without UV treatment
[1]; cells without UV treatment
  VEGF expression of hfRPE: do not change VEGF expression
[2]
  secondary and tertiary protein structures: intact

Source: patent publication US20250255808A1, “NANOGEL PLATFORM TECHNOLOGY FOR LONG-TERM BIOLOGICS THERAPY” (UNIVERSITY OF MARYLAND, BALTIMORE, priority 2022, published 2025)
